T1: PtNTT2(66-575) (Phaeodactylum tricornutum, UniProt B7FWL8)
T1 sequence (B7FWL8 66-575): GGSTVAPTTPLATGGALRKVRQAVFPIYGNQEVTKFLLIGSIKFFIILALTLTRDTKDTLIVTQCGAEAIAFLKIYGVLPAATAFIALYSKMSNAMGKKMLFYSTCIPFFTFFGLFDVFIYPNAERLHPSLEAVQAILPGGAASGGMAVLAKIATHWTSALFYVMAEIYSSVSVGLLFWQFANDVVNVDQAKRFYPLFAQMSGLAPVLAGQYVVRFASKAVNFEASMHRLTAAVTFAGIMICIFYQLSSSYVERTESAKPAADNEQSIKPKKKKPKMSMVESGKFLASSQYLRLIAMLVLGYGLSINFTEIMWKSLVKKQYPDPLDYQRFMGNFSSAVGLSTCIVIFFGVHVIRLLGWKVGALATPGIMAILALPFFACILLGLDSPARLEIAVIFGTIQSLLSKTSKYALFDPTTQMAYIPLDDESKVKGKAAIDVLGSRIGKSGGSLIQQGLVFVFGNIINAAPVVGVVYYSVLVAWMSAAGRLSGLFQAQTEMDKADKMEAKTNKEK

B1: PtNTT2(66-575) (Phaeodactylum tricornutum CCAP 1055/1) (protein)
chain: GGSTVAPTTPLATGGALRKVRQAVFPIYGNQEVTKFLLIGSIKFFIILALTLTRDTKDTLIVTQCGAEAIAFLKIYGVLPAATAFIALYSKMSNAMGKKMLFYSTCIPFFTFFGLFDVFIYPNAERLHPSLEAVQAILPGGAASGGMAVLAKIATHWTSALFYVMAEIYSSVSVGLLFWQFANDVVNVDQAKRFYPLFAQMSGLAPVLAGQYVVRFASKAVNFEASMHRLTAAVTFAGIMICIFYQLSSSYVERTESAKPAADNEQSIKPKKKKPKMSMVESGKFLASSQYLRLIAMLVLGYGLSINFTEIMWKSLVKKQYPDPLDYQRFMGNFSSAVGLSTCIVIFFGVHVIRLLGWKVGALATPGIMAILALPFFACILLGLDSPARLEIAVIFGTIQSLLSKTSKYALFDPTTQMAYIPLDDESKVKGKAAIDVLGSRIGKSGGSLIQQGLVFVFGNIINAAPVVGVVYYSVLVAWMSAAGRLSGLFQAQTEMDKADKMEAKTNKEK

Substrate in one series: Nc1ncnc2c1ncn2[C@@H]1O[C@H](COP(=O)(O)OP(=O)(O)OP(=O)(O)O)[C@@H](O)[C@H]1O
Put plainly: radiolabelled uptake into E. coli YZ2 cells, filter assay. The class given is cell-based, Phaeodactylum tricornutum. The following applies: whole-cell uptake; labelled compound ([α-32P]ATP).
With B1, the Km (commonly the substrate concentration at which the rate is half of its maximum) was 186.0 ± 21.1 µM.

The next series deals with T1, PtNTT2(66-575). Description: inhibition of [α-32P]ATP uptake into E. coli YZ2 cells. The following applies: read-out: % inhibition at 500 μM. The class given is cell-based.
For the molecule `Nc1nc2c(ncn2COCCOP(=O)(O)OP(=O)(O)OP(=O)(O)O)c(=O)[nH]1` [ACVTP], the inhibition – broadly, the change of the read-out against control, counted positive when it falls – at 500 µM is 68.6 ± 5.5%.
Same read-out and setting: then `Nc1nc2c(ncn2[C@H]2C[C@H](O)[C@@H](COP(=O)(O)OP(=O)(O)OP(=O)(O)O)O2)c(=O)[nH]1` [dGTP], with 55.3 ± 3.6%; and `Cc1cn([C@H]2C[C@H](N=[N+]=[N-])[C@@H](COP(=O)(O)OP(=O)(O)OP(=O)(O)O)O2)c(=O)[nH]c1=O` [AZTTP], with 56.9 ± 12%; and `Nc1nc(=O)n([C@@H]2O[C@H](COP(=O)(O)OP(=O)(O)OP(=O)(O)O)[C@@H](O)[C@H]2O)cc1I` [5-ICTP], with 96.6 ± 1.3%.
Still for that read-out and setting: with `Nc1ccn([C@@H]2O[C@H](COP(=O)(O)OP(=O)(O)OP(=O)(O)O)[C@@H](O)[C@H]2O)c(=O)n1` [CTP] the figure was 70.5 ± 4.9%.
In the case of `Nc1ccn([C@@H]2O[C@H](COP(=O)(O)OP(=O)(O)OP(=O)(O)O)[C@@H](O)[C@@H]2O)c(=O)n1` [Ara-CTP], the inhibition at 500 µM was 81.3 ± 5.2%.
For `Nc1nc2c(ncn2[C@@H]2O[C@H](COP(=O)(O)OP(=O)(O)OP(=O)(O)O)[C@@H](O)[C@H]2O)c(=O)[nH]1` [GTP], the inhibition at 500 µM was 60.4 ± 1.4%.
Take `Nc1nc(=O)n([C@@H]2O[C@H](COP(=O)(O)OP(=O)(O)OP(=O)(O)O)[C@@H](O)[C@H]2O)cc1CO` [5-hmCTP]: the inhibition at 500 µM came out at 76.3 ± 2.9%.
Same read-out and setting: with `Nc1nc2c(ncn2[C@@H]2O[C@H](COP(=O)(O)OP(=O)(O)OP(=O)(O)O)[C@@H](O)[C@@H]2O)c(=O)[nH]1` [Ara-GTP] the figure was 47.8 ± 7.9%; with `Nc1nc(=O)n([C@H]2C[C@H](O)[C@@H](COP(=O)(O)OP(=O)(O)OP(=O)(O)O)O2)cc1I` [5-IdCTP], 73.6 ± 1.8%.
Same read-out and setting: then `Nc1ccn([C@H]2C[C@H](O)[C@@H](COP(=O)(O)OP(=O)(O)OP(=O)(O)O)O2)c(=O)n1` [dCTP], with 76.3 ± 2.8%.

(Values after publication PMC5809120 (Journal of the American Chemical Society, 2018).)
